Reference: ChEMBL document CHEMBL1201862, “PubChem BioAssay data set” (2004)
One block for each compound: values may come before it. Calls of active or inactive are those of the source.

Legend:
[1] = biological target: Dual specificity protein phosphatase 3 (Homo sapiens, UniProt P51452); test: SAR VHR1 Fluorescent Assay for In Vitro dose response studies Set 2. [Related pubchem assays (depositor defined):AID1654, AID1661, AID1878]; format: functional
[2] = biological target: Tyrosine-protein phosphatase non-receptor type 7 (Homo sapiens, UniProt P35236); test: SAR analysis of chemical inhibitors of HePTP using a Fluorescent assay - Set 2. [Related pubchem assays (depositor defined):AID1059, AID1077, AID1661, AID2085, AID521]; format: functional
[3] = inhibitors of intracellular T. cruzi replication, confirmation, NIH3T3 host cells, beta-gal luminescence (AID 2044); format: functional, cell-based;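 further: intracellular parasites grown in NIH/3T3 mouse fibroblasts as host cells; luminescent beta-galactosidase reporter signal from transgenic T. cruzi replicating inside host cells; inhibitors lower the luminescence signal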
[4] = biological target: T1, Type-1 angiotensin II receptor (Homo sapiens, UniProt P30556); test: AT1 receptor agonists, dose response, selectivity assay for APJ receptor agonist project, cell-based, uHTS hits (AID 488865); format: functional;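 further: beta-arrestin recruitment to AT1 measured by enzyme fragment complementation luminescence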
T1 sequence (P30556 whole entry): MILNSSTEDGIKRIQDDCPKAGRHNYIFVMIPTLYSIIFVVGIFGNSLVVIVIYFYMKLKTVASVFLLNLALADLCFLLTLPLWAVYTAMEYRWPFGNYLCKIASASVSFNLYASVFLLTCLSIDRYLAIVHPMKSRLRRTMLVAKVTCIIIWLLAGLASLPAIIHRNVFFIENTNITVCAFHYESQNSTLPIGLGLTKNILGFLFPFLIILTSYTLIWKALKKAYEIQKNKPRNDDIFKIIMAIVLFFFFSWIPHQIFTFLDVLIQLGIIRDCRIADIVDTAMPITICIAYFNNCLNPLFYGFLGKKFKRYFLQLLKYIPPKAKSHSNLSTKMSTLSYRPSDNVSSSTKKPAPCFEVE

[5] = cytotoxicity toward NIH3T3 fibroblasts, dose response, counter-screen, cell-based, ATP luminescence, mouse fibroblasts (AID 2010); format: functional;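 further: cells exposed to compound for about 90 hours before reading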
Bcl-2-related protein A1 = biological target: T2, Bcl-2-related protein A1 (Mus musculus, UniProt Q07440); format: functional;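 further: confirmatory dose–response counterscreen on Bfl-1, used to check hits from a UBC13 polyubiquitin inhibitor campaign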
T2 sequence (Q07440 whole entry): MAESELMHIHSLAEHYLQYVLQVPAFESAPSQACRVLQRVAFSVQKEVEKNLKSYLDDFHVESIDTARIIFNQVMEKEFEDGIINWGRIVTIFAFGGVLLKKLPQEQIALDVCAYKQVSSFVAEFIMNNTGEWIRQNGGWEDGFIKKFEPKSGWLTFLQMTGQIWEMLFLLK

[6] = biological target: T3, Ubiquitin-conjugating enzyme E2 N (Homo sapiens, UniProt P61088); format: functional
T3 sequence (P61088 whole entry): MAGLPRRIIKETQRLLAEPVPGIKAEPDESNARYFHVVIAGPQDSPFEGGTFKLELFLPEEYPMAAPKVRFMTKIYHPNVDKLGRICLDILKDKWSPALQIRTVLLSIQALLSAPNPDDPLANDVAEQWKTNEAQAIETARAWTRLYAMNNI

[7] = biological target: T3, Ubiquitin-conjugating enzyme E2 N; format: functional; remark: listed apart in the source

Chain of Tyrosine-protein phosphatase non-receptor type 7 (P35236 whole entry): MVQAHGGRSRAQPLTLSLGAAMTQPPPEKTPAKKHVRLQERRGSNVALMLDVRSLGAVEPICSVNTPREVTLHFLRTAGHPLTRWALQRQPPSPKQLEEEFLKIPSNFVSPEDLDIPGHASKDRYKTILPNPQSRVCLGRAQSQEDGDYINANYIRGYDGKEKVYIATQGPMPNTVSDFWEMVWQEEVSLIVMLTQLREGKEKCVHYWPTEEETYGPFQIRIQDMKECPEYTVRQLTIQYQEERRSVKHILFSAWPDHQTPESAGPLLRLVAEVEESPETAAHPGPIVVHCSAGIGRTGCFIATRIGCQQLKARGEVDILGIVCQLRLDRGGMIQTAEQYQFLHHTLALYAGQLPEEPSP
Chain of Dual specificity protein phosphatase 3 (P51452 whole entry): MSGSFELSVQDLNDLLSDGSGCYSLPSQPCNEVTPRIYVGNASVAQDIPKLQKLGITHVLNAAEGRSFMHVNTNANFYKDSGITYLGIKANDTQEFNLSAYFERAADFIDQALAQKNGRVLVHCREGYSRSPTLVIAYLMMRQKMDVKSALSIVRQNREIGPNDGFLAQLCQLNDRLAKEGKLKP

SMILES: Nc1c(C(=O)N2CCOCC2)sc(=S)n1-c1ccccc1
IC50 [1]: 85.5 µM (active)
IC50 [2]: > 100 µM (inactive)

SMILES: Clc1cccc(CN2CCc3c([nH]c4ccccc34)C2)c1
EC50 [3]: 3.73 µM (active)
EC50 [4]: > 100 µM (inactive)
EC50 [5]: > 60 µM (not active)

IC50 (Bcl-2-related protein A1): > 20 µM (inactive)
IC50 [6]: > 20 µM (inactive)
IC50 [7]: 14 µM (active)
SMILES: COc1ccc(OC)c(/C=C/C(=O)OCC(=O)c2c(N)n(C)c(=O)n(C)c2=O)c1
